One assay concerns Bacillus pumilus. The assay can be described thus: Flow microcalorimetry (p-t curves) of growing culture. It counts as cell-based. An excerpt:
(§1) • a) For B. pumilus a simple glucose/salts medium was employed with a glucose concentration of 0.1 % w/v. • b) For Bord. bronch. The above salts medium was used with the addition of nicotinic acid, methionine and glutamic acid. Glutamic acid was used at a concentration of 0.2% w/v. • c) For M. flavus a semidefined medium was employed, using the same salts as a B. pumilus but also Na-citrate, biotin and protease peptone. In the calorimeter a concentration of 0.4% protease peptone was used. All medium constituents (except protease) were analytical reagents. The calorimetric medium was therefore a final concentration of 100ml of either solution a, b or c freshly autoclaved for 15 mins exactly at 121°C, 151b/sq inch. Glucose was added to the appropriate solution after autoclaving.
(§2) To the vertical face of the vessel close to its base, equidistantly spaced around the circumference, ports were fitted for an oxygen electrode and for sampling/inoculation. The fermenter was closed with a flat flanged glass lid which had five ports accommodating respectively, gas inlet tube, gas exhaust (via air condenser), inlet and outlet flow-lines to and from the calorimeter. The fermenter and lid was sealed with a p.t.f.e. gasket and clamped with a metal clip. The fermenter was placed on a magnetic stirring unit in a water jacket which allowed circulation of the thermostatically controlled water at 30°C or 37°C. The fermenter which contained a Teflon coated magnetic stirring bar, was sterilised by autoclaving.
(§3) For a typical calorimetric incubation the medium was passed through the calorimetric vessel at the same flow rate and temperature as those used in the experiment to establish a steady baseline deflection. The following operations then took place to a strict timetable. The liquid nitrogen stored ampoule was thawed at 38°C for 3 min and then stirred for 20 sec on a whirlimixer. The bacterial suspension (0.5-1.5ml) volumes was inoculated into the medium (100ml) two minutes after completion of thawing. A Gilson automatic pipette was used for inoculation. The calorimeter inlet flow-line was placed in the incubation medium 30 seconds after inoculation. The flowing incubation medium reached the calorimetric vessel two min after inlet flow-line insertion. At this time the recording of the p-t curves was started. Eight min after inoculation the outflow from the calorimeter was returned to the fermenter (after the "baseline" medium had run to waste but before the inoculated medium ran to waste) thus making a closed system. Aeration was started as soon as the inlet tube was inserted in the fermenter. Microbiological purity of the culture was checked by plating out a sample of the culture at the end of each incubation on nutrient agar (lab M).
(§4) The output of calorimetric experiments is a plot of power (energy evolution per unit of time) as a function of time. The unit of power (p) is the Watt (W) and the unit of time is the hour (h). In some experiments seconds (s) were used as time unit.
P-t curves of B. pumilus at 30µV full scale deflection (471.15µW) show a logarithmic increase in power. […] After 10h growth the power output was: 17% for 0.05% glucose, 22% for 0.2% glucose and 18% for 0.1% glucose. It was decided to use 0.1% glucose for microcalorimetrically monitored growth experiments, because use of 0.2% glucose could result in the bacterium clumping in the calorimetric chamber or in the Teflon tubes leading to and from the calorimeter. In 0.05% glucose B. pumilus grew slightly slower and to a smaller percentage total deflection than in the 0.1 % glucose incubations. The p-t curve of 0.1 % glucose on 10µV (157.05µW full scale deflection) was obtained.

For assay [1], the system named is Bordetella bronchiseptica. The experiment in a line: MIC and MBC determination, two-fold serial dilutions assayed for turbidity. It counts as cell-based. As for the experimental part: (§5) MIC and MBC's were determined as follows: • Two-fold serial dilutions of antibiotic in their respective media were incubated for 16-24h (depending on the bacterial strain) and assayed for turbidity. A tube with a turbid suspension was not inhibited and a clear suspension with the lowest concentration of antibiotic showing no growth was designated MIC. MBC's were checked as follows: 0.01ml of each suspension from tubes showing no growth were added to agar plates and incubated for 48H; the lowest concentration of antibiotic from which no colonies formed was designated MBC.

Assay [2] deals with Micrococcus flavus. The description is as above. The class given is cell-based. As to the method: as §5
In the next assay the test system is respiring E.coli. The assay can be described thus: Flow microcalorimetry (p-t curves) of respiring cells in glucose buffer. It counts as cell-based. As to the method: The respiration experiments were carried out in glucose buffer at different pH.
The nitrofurans only differed in the length of their side chains (e.g. methyl, propyl etc.).
To assay the nitrofurans at a concentration where the maximum sensitivity to E.coli could be achieved MIC's were determined for each compound. […] The respiratory medium was the one described previously at pH7. […] No compensation was made for DMSO when diluting the samples as high concentrations of DMSO could falsify the results.

Assay [3] concerns Bordetella bronchiseptica. The experiment in a line: Flow microcalorimetry (p-t curves) of growing culture. The class given is cell-based.
From the text: as §1, §2, §3, §4
After successful freezing of Bord. bronch p-t curves for growth in different concentrations of glutamic acid from 0.1%-0.5% were obtained. It was concluded that a medium containing 0.2% glutamic acid would be sufficient for a good deflection in the microcalorimeter minimising the possibility of the bacteria clogging in the microcalorimetric cell or in the teflon tubes leading to and from the microcalorimetric cell. A pH of 7 was used in all the following experiments as this is the optimum pH for polymyxin - lipid binding.
It was of vital importance to maintain a constant oxygen tension; this was achieved by using saturation concentrations of oxygen. It was decided to use the height of the small peak as full scale deflection for the antibiotic assay as the increase in power was exponential up to this point and the peak occurred at a convenient time. This choice of assay point was empirical. The inoculum was 1.1 ± 0.06 x 10^8 cfu/ml for all the microclalorimetric incubations. […]

The subject of assay [4] is Micrococcus flavus. The description is as above. It counts as cell-based. To be noted: bacterial concentration printed '0?'.
From the text: as §1
To the vertical face of the vessel close to its base, equidistantly spaced around the circumference, ports were fitted for an oxygen electrode and for sampling/inoculation. The fermenter was closed with a flat flanged glass lid which had five ports accommodating respectively, gas inlet tube, gas exhaust (via air condenser), inlet and outlet flow-lines to and from the calorimeter. The fermenter and lid was sealed with a p.t.f.e. gasket and clamped with a metal clip. […]

Another assay relates to B. pumilus. The experiment in a line: MIC determination, two-fold serial dilutions assayed for turbidity. The class given is cell-based, Bacillus pumilus. As for the experimental part: as §5
A further assay has as its system E.coli. The experiment in a line: MIC and MBC determination, two-fold serial dilutions assayed for turbidity. It counts as cell-based. As for the experimental part: MIC and MBC's were determined as follows: • Two-fold serial dilutions of antibiotic in their respective media were incubated for 16-24h (depending on the bacterial strain) and assayed for turbidity.
A tube with a turbid suspension was not inhibited and a clear suspension with the lowest concentration of antibiotic showing no growth was designated MIC. MBC's were checked as follows: 0.01ml of each suspension from tubes showing no growth were added to agar plates and incubated for 48H; the lowest concentration of antibiotic from which no colonies formed was designated MBC.
To assay the nitrofurans at a concentration where the maximum sensitivity to E.coli could be achieved MIC's were determined for each compound. […] The respiratory medium was the one described previously at pH7. […] None of the nitrofurans were water soluble so prior to either MIC determination or incubation an accurately weighed sample of each compound was dissolved in 0.4ml DMSO and then 1.6ml H2O was added. When this solution was added to either tubes containing nutrient broth or to the fermentation vessels emulsions resulted. Good stirring minimised the problem in the calorimeter. No compensation was made for DMSO when diluting the samples as high concentrations of DMSO could falsify the results. […] Two types of responses were observed. […] No dependence of MIC on either RMM or power could be observed.

Assay [5] in a line: Animal case study, antibiotic treatment of a scratch to the eye. The class given is in vivo. The following applies: 30 days of treatment, domestic cat with a scratch to the eye. As for the experimental part:
A domestic cat was given a mixture of antibiotics as eye drops in response to a scratch to the eye. […] Previously the cat had never been given milk (as many animals are allergic to cow's milk). The cat was now given full cream milk as part of a regimen to promote weight gain (the cat also continued to eat its usual amount of daily cat food throughout the period of weight loss). Initially weight was gained but within 24 hours weight loss resumed (presumably because the pathogenic bacteria/viruses had found a way of utilising lactose). An autopsy indicated bone-cancer as cause of death. The body wasting caused by the weight loss was very similar to that observed in early AIDS cases. However the cat had been regularly vaccinated against HTLV 1 through its 16 year life (and had never been ill in that period).

Read-outs that look alike come from different tables or passages of the source.

For `NC[C@@H]1O[C@H](O[C@H]2[C@@H](O)[C@H](O[C@@H]3[C@@H](O)[C@H](N)C[C@H](N)[C@H]3O[C@H]3O[C@H](CN)[C@@H](O)[C@H](O)[C@H]3N)O[C@@H]2CO)[C@H](N)[C@@H](O)[C@@H]1O.O=S(=O)(O)O` [Neomycin sulphate], the power output entry in the assay on Bacillus pumilus (0.5 and 1 x MIC (1-2 µg/ml) added after an increase of 10% of full scale deflection) is on record as “the same effect was observed”; with Bacillus pumilus (0.5 x MIC (1µg/ml) added after a 25% increase power output, 2-4h after addition) it was “massive power output”; in the assay with Bacillus pumilus (added after an increase in power output of 15% of full scale deflection), “only marginally larger than that observed for the normal growth curve”; in the assay on Bacillus pumilus (higher concentrations of antibiotic (above 1 x MIC), added after 10% of full scale deflection), “a decrease in power output was observed”. Moreover, the heat output result in the assay on Bacillus pumilus (concentrations of < 1ug/ml or in combinations with other antibiotics, organism not named at this place) is “increased heat output”; in the assay on respiring E.coli (respiring E.coli, all concentrations), “increased heat output”. Also, the MIC entry in assay [1] is “MIC NEO 0.25 ug/ml”; in the assay on Micrococcus flavus [2] it was “MIC NEO 4 ug/ml”; in the assay on B. pumilus (5.1 x 10^6 cfu/ml, inoculum used in the microcalorimetric incubations) it was 2 µg/mL; against B. pumilus (inoculum not given) it was “MIC NEO 1 ug/ml”; with B. pumilus (inoculum of 1x10^5 cfu/ml), 0.1 µg/mL; in the assay with E.coli, 500 µg/mL. In the assay on E.coli (listed as NEO), the MIC result is “NEO 5900 ug/ml”. Also, the “range of linear dose-response” value in the assay with respiring E.coli (respiration) fell in the range of 10 to 100 µg/mL. Besides, the “Observed effect on p-t curves” value is “Increase in heat output” in the assay on respiring E.coli (respiration, 500 ug/ml); “No effect on p-t curve” in [3] (0.25ug/ml added at 50 % of p-t curve); “No effect on p-t curve” with Micrococcus flavus [4] (4 ug/ml). In addition, the “range of linear relationship between dose and the reciprocal of increase in response from the control curve” value with respiring E.coli (respiring E.coli) fell in the range of 20 to 100 µg/mL. In addition, in the assay with respiring E.coli (respiring E.coli, pH 8), the effect on power entry was “caused an increase in power”. Besides, the “effect at MIC” value in the assay with B. pumilus (5.1 x 10^6 cfu/ml) and with B. pumilus (inoculum of 1x10^5 cfu/ml) was “bacteriostatic” in each case. Also, the MBC result against E.coli is “NEO 5900 ug/ml”.

As for `CN[C@H](CC(C)C)C(=O)N[C@H]1C(=O)N[C@@H](CC(N)=O)C(=O)N[C@H]2C(=O)N[C@H]3C(=O)N[C@H](C(=O)N[C@H](C(=O)O)c4cc(O)cc(O)c4-c4cc3ccc4O)[C@H](O)c3ccc(c(Cl)c3)Oc3cc2cc(c3O[C@@H]2O[C@H](CO)[C@@H](O)[C@H](O)[C@H]2O[C@H]2C[C@](C)(N)[C@H](O)[C@H](C)O2)Oc2ccc(cc2Cl)[C@H]1O` [vancomycin], in assay [5], the “effect of treatment on the eye” value is “without any effect to the eye”.

For Polymyxin B sulphate, the “Observed effect on p-t curves” value was “Within 9 hours growth was inhibited completely” with Bacillus pumilus (20ug/ml, within 9 hours, bacterial concentration printed '0?'); “Reduced height of p-t curve initially and returned to baseline within I hour” in the assay on respiring E.coli (respiration, 6.3 ug/ml); “No effect on growth curve” in assay [3] (0.07 ug/ml added at 18 % of p-t curve); “Linear log dose response 10 min after addition of antibiotic CV 2.5%” in assay [3] (0.35 -2 ug/ml added at 18 % of p-t curve, 10 min after addition); “Slightly delayed peak” in the assay with Micrococcus flavus [4] (2ug/ml). In addition, the minimum bactericidal concentration (MBC) result in assay [1] was “Ug/ml MIC & MBC 2 ug/ml”; in [1] (listed as polymyxin B sulphate) it was 2 µg/mL; in the assay with E.coli, 6.3 µg/mL; with E.coli (listed as POL), “POL 6.3ug/ml”. The minimum inhibitory concentration (MIC) entry in [1] is “Ug/ml MIC & MBC 2 ug/ml”; in assay [1] (listed as POL), “POL 2ug/ml”; in assay [1] (listed as polymyxin B sulphate) it was 2 µg/mL; against Micrococcus flavus [2] it was “POL 2ug/ml”; with B. pumilus (inoculum not given), “POL 20 ug/ml”; in the assay with E.coli, 6.3 µg/mL. For the same compound, the minimal inhibitory concentration (MIC) result with E.coli (listed as POL) was “POL 6.3ug/ml”. For the same compound, the Comments result in the assay on respiring E.coli (respiration, 6.3 ug/ml) is given as “Bacteriocidal action demonstrated”; in [3] (0.35 -2 ug/ml added at 18 % of p-t curve), “All curves return to baseline confirmed bacteriocidal action”. Further, the “sensitivity of the assay” value with respiring E.coli (respiring E.coli) came to 3 µg/mL. Moreover, the “effect on p-t curve” value in the assay with respiring E.coli (respiring E.coli, pH 7) was “reduced the initial peak height and thereafter the p-t curve returned to baseline”. Moreover, the response result in [3] (0.033 x MIC (0.07 µg/ml)) was “no response to the antibiotic was observed”. The p-t curve result in assay [3] (0.5 x MIC, within 10 min of addition) is “sharp decline in heat output”. Also, the mode of action result in [3] (at MIC values) is “bactericidal”. For the same compound, the “decline of the p-t curve” value in [3] (concentration larger than 3.5 x MIC) is given as “the declines were identical”. The “reversibility of the effect” value in [3] (most concentrations of antibiotic, decline in power decreased to a baseline value) is listed as “irreversible”. Also, the “time to observable response after addition of the antibiotic” value in assay [3] (usually) was no more than 5 min.

As usually defined, the MIC is the lowest concentration that inhibits growth of the organism. Low readings indicate inhibition by little substance, high ones a need for much substance. As usually defined, the MBC is the smallest concentration meeting the test's criterion for killing.

The values above are taken from patent publication EP1785721A1, “Microbial, viral and mammalian susceptibility to agents that affect cell growth and metabolism, and mode of action of compounds” (Stratos Bio Ltd., priority 2005, dated 2007).
